Read-outs that look alike come from different tables or passages of the source.
Key:
[1] = target: T1, SYK kinase (Homo sapiens, UniProt P43405); test: In vitro test of the inhibition effect on SYK kinase (HTRF); assay type: biochemical; settings: tyrosine kinase 0.0156 ng/μL, substrate 0.2 uM, ATP 2 uM, 23° C. 1 hour, read-out: Inhibit SYK kinase IC50
T1 construct: purchased Invitrogen PV3857
Method: Experimental Example 1: In Vitro Test of the Inhibition Effect of the Example Compounds on SYK Kinase
Adenosine triphosphate concentration was controlled at 2 uM. • 4) Loaded with a Multidrop automatic dispenser, and a mixture of tyrosinase solution and tyrosine kinase-substrate-biotin/adenosine triphosphate was added in an amount of 5 ul per well, and incubated at 23° C. for 1 hour. • c) Detection phase: • 1) Added 13.33 mL of ethylenediaminetetraacetic acid solution to the Detection Buffer in the kit, added the specified amount of […] (Eu)-labeled antibody and streptavidin XL-665, and prepared the detection solution. • 2) Loaded with a Multidrop automatic dispenser, and 10 uL of the detection solution per well, incubated at 23° C. for 1 hour. It terminated the reaction of the enzyme and substrate mixture. • 3) Reading after centrifugation on a multi-function microplate reader, • d) Data Analysis: Analyzed the data with XL-Fit, and calculated the IC50 value of the compound.

[2] = test system: AKT phosphorylation; test: In vitro test of the inhibition effect on AKT phosphorylation (ELISA, Ramos cells); assay type: cell-based
Method: Experimental Example 2: In Vitro Test of the Inhibition Effect of the Example Compounds on AKT Phosphorylation
• 2.1 Experimental Purpose: Intracellular protein kinase AKT phosphorylation detected by experiment was measured by enzyme-linked immunosorbent assay (ELISA), and the inhibition of the compound on protein kinase AKT phosphorylation was evaluated by an index of the half-cell inhibition concentration (IC50) value of the compound. • 2.2 Experimental Materials: • Cell line: Ramos cell line • Cell culture medium (RPMI1640, Invitrogen #22400-105; 10% serum Gibco #10099-141; L-glutamine 1×, Gibco #25030-081) • Experimental medium (without serum, RPM11640, Invitrogen #22400-105; L-glutamine 1×, Gibco #25030) • Lysis buffer (trishydroxymethylaminomethane hydrochloride, Invitrogen15567-1000 ml; sodium chloride, domestic; sodium deoxycholate, Sigma30970-25 G; polyethylene glycol octylphenyl ether, SigmaT9284-100 ml; dodecane sodium sulfonate, SigmaL3771; ethylenediaminetetraacetic acid, Invitrogen15575-038-100 ml; ultrapure water, MilliQ) • Protease inhibitor (Roche, 4693159001-30/BOX) • Phosphatase inhibitor mixture 2 (Sigma, P5726-5 ML) • Phosphatase inhibitor mixture 3 (Sigma, P0044-5 ML) • Goat Anti-Human immunoglobulin M (F(ab′)2 Goat Anti-Human IgM) (Jackson Immuno Research-109-006-129) • Phosphorylated AKT assay kit (Phospho-AKT 1/2/3 (ser473)) (TGR Bioscience, EKT002) • 10× Hank's balanced salt solution (Gibco #14065-056) • 96-well cell plate (Greiner #655090) • Compound V-well dilution plate (Axygen #WITP02280) • CO2 incubator (Thermo #371) • Centrifuge (Eppendorf #581 OR) • Vi-cell cell counter (Beckman Coulter) • Pipette (Eppendorf) • Pipette (Greiner) • Pipetting gun (Eppendorf) • Multi-purpose microplate reader (Envision Reader) • 2.3 Experimental procedures and methods: • a) Cell Seeding (Ramos Cells) • 1) The medium was preheated in a 37° C. water bath. Suspended cells and their culture solution were aspirated, centrifuged at 1000 rpm for 5 minutes. • 2) Aspirated the cell culture medium, added 10 mL of pre-warmed medium to the centrifuge tube, blew off the resuspended cells, pipette 1 mL of the cell suspension, and counted with Vi-cell; • 3) The Ramos cells were diluted with a medium to a density of 5×10^6/mL, and the diluted cells were added to a 96-well cell culture plate (100 μL/well) using a lance. Placed the cell plates in a 37° C., 5% CO2 incubator for overnight. • b) Cell starvation: • 1) After cultured the inoculation cells for overnight, centrifuged at 1000 rpm for 5 minutes on the next day, aspirated the original medium by a lance, added serum-free experimental medium, placed the cell plates in a 37° C., 5% CO2 incubator, and starved for overnight. • c) Compound preparation and dosing: • 1) The compound was diluted with dimethyl sulfoxide to give an initial concentration of 5 mM. A triple gradient dilution was done with compound V dilution plate to make 10 concentration points. • 2) Took another new compound V-well dilution plate, added 198 ul of serum-free experimental medium to each well, and then added 2 ul of the diluted compound above to each well, and mixed with a lance. […]

[3] = Homo sapiens, Ramos, Ramos cell line, compound 1 hour, goat anti-human IgM 10 ug/ml for 10 minutes, Phospho-AKT 1/2/3 (ser473) ELISA, read-out: Inhibit AKT phosphorylation IC50
[4] = Homo sapiens, Ramos, read-out: Inhibit AKT phosphorylation IC50 (nM)

Row | Structure (SMILES) | IC50 [1] [nM] | IC50 [2, 3] [nM] | IC50 [2, 4] [nM] | IC50 ([2]; Ramos cell line, compound 1 hour, goat anti-human IgM 10 ug/ml for 10 minutes, Phospho-AKT 1/2/3 (ser473) ELISA, read-out: Inhibit AKT phosphorylation IC50) [nM]
1 | Cn1c(=O)c(Nc2ccc(N3CCC(O)(C(F)(F)F)CC3)cn2)cc2c(F)c(-c3cc[nH]n3)ccc21 [Example 10, 5-Fluoro-3-[[5-[4-hydroxy-4-(trifluoromethyl)piperidin-1-yl]pyridin-2-yl]amino]-1-methyl-6-(1H-pyrazol-3-yl)quinoline-2(1H)-one] | 30 | 343 |  | 
2 | Cn1c(=O)c(Nc2ccc(N3CCOCC3)cn2)cc2c(F)c(-c3cc[nH]n3)ccc21 [Example 11, 5-Fluoro-1-methyl-3-((5-morpholinopyridin-2-yl)amino)-6-(1H-pyrazol-3-yl)quinoline-2(1H)-one] | 15 | 230 |  | 
3 | Cn1c(=O)c(Nc2ccccn2)cc2c(F)c(-c3cc[nH]n3)ccc21 [Example 15, 5-Fluoro-1-methyl-6-(1H-pyrazol-3-yl)-3-(pyridin-2-amine)-quinoline-2(1H)-one] | 101 | 425 |  | 
4 | Cn1c(=O)c(Nc2ccc(N3CCC[C@H](C(=O)O)C3)cn2)cc2c(F)c(-c3cc[nH]n3)ccc21 [Example 19, (3S)-1-[6-[[5-fluoro-1-methyl-2-oxa-6-(1H-pyrazol-3-yl)-1,2-dihydroquinolin-3-yl)amine]pyridin-3-yl]piperidine-3-carboxylic acid] | 14.3 | 388 |  | 
5 | Cn1c(=O)c(Nc2ccc(N3CCOCC3)cc2)nc2ccc(-c3c[nH]cn3)cc21 [Example 31, 7-(1H-imidazol-4-yl)-1-methyl-3-((4-morpholinephenyl)amino)quinoxaline-2(1H)-one] | 81 | 132 |  | 
6 | Cn1c(=O)c(Nc2ccc(N3CCCC(C(=O)O)C3)cc2)nc2ccc(-c3cn[nH]c3)cc21 (stereo not drawn) [Example 55, 1-(4-((4-methyl-3-oxo-6-(1H-pyrazol-4-yl)-3,4-dihydroquinoxalin-2-yl)amino)phenyl)piperidine-3-carboxylic acid] | 4.1 |  | 116 | 
7 | Cn1c(=O)c(Nc2ccc(C(C)(C)O)cn2)cc2c(F)c(-c3cc[nH]n3)ccc21 [Example 20] | 12.7 | 63 |  | 
8 | Cn1c(=O)c(Nc2ccc(N3CCOCC3)c(F)c2)nc2ccc(-c3cn[nH]c3)cc21 [Example 48, 3-((3-Fluoro-4-morpholinephenyl)amino)-1-methyl-7-(1H-pyrazol-4-yl)quinoxaline-2(1H)-one] | 10.5 | 114 |  | 
9 | Cn1c(=O)c(Nc2ccc(C3CCOCC3)cn2)cc2cc(-c3cc[nH]n3)ccc21 [Example 3] | 40.7 | 323 |  | 
10 | Cn1c(=O)c(Nc2ccc(C3(O)CCC3)cn2)cc2c(F)c(-c3cc[nH]n3)ccc21 [Example 21] | 22 |  | 200 | 
11 | Cn1c(=O)c(Nc2ccc(N3C4CCC3CNC4)cc2)nc2ccc(-c3cn[nH]c3)cc21 [Example 54, 3-[4-(3,8-Diazabicyclo[3.2.1]octane-8-yl)aniline]-1-methyl-7-(1H-pyrazol-4-yl)quinoxaline-2(1H)-one] | 5 | 69 |  | 
12 | Cn1c(=O)c(Nc2ccc(N3CCN(C4COC4)CC3)cn2)cc2cc(-c3cc[nH]n3)ccc21 [Example 4, 1-Methyl-3-[[5-(4-(oxetan-3-yl)piperazin-1-yl]pyridin-2-yl]amino]-6-(1H-pyrazol-3-yl)quinoline-2(1H)-one] | 34.3 | 585 |  | 
13 | Cn1c(=O)c(Nc2ccc(N3CCC[C@@H](C(=O)O)C3)cn2)cc2c(F)c(-c3cc[nH]n3)ccc21 [Example 18, (3R)-1-[6-[[5-fluoro-1-methyl-2-oxa-6-(1H-pyrazol-3-yl)-1,2-dihydroquinolin-3-yl)amino]pyridin-3-yl]piperidine-3-carboxylic acid] | 26 | 844 |  | 
14 | Cn1c(=O)c(Nc2ccc(N3CCS(=O)(=O)CC3)cc2)nc2ccc(-c3cn[nH]c3)cc21 [Example 35, 3-((4-(1,1-Dioxothiomorpholine)phenyl)amino)-1-methyl-7-(1H-pyrazol-4-yl)quinoxaline-2(1H)-one] | 5.1 | 52.2 |  | 
15 | CN1CCN(c2ccc(Nc3nc4ccc(-c5cn[nH]c5)cc4n(C)c3=O)cc2)CC1 [Example 33, 1-Methyl-3((4-(4-methylpiperazin-1-yl)phenyl)amino)-7-(1H-pyrazol-4-yl) quinoxaline-2(1H)-one] | 3.2 |  | 226 | 
16 | Cn1c(=O)c(Nc2ccc(N3CCC4(CC3)COC4)cn2)cc2c(F)c(-c3cc[nH]n3)ccc21 [Example 12, 5-Fluoro-1-methyl-3-[[5-(2-oxazole-7-azaspiro[3.5]nonane-7-yl)pyridin-2-yl]amino]-6-(1H-pyrazol-3)quinoline-2(1H)-one] | 114 | 750 |  | 
17 | Cn1c(=O)c(Nc2ccc(N3CCN(C4COC4)CC3)cn2)cc2c(F)c(-c3cc[nH]n3)ccc21 [Example 9, 5-Fluoro-1-methyl-3-((5-(4-(oxetan-3-yl)piperazin-1-yl)pyridin-2-yl)amino)-6-(1H-pyrazol-3-yl)quinoline-2(1H)-one] | 12 | 170 |  | 
18 | Cn1c(=O)c(Nc2ccc(N3CCCC(C)(C(=O)O)C3)cn2)cc2c(F)c(-c3cc[nH]n3)ccc21 (stereo not drawn) [Example 17, 1-(6-((5-Fluoro-1-methyl-2-oxo-6-(1H-pyrazol-3-yl)-1,2-dihydroquinolin-3-yl)amine)pyridine-3-yl)-3-pipecoline-3-carboxylic acid] | 24.9 | 255 |  | 
19 | Cn1c(=O)c(Nc2ccc(N3CCOCC3)cc2)nc2ccc(-c3cn[nH]c3)cc21 [Example 26, 1-Methyl-3-((4-morpholinephenyl)amino)-7-(1H-pyrazol-4-yl)quinoxaline-2(1H)-one] | 4.2 | 50 |  | 
20 | Cn1c(=O)c(Nc2ccc(N3CCOCC3)cc2)cc2cc(-c3cc[nH]n3)ccc21 [Example 1, 1-Methyl-3-((4-morpholinephenyl)amino)-6-(1H-pyrazol-3-yl) quinoline-2(1H)-one] | 33.8 |  |  | 248
21 | Cn1c(=O)c(Nc2ccc(N3CCOCC3)cc2)nc2c(F)cc(-c3cn[nH]c3)cc21 [Example 44] | 4.4 | 97 |  | 
22 | Cn1c(=O)c(Nc2ccc(N3CCOCC3)cc2)nc2ccc(-c3cn[nH]c3)c(F)c21 [Example 46, 8-Fluoro-1-methyl-3-((4-morpholinephenyl)amino)-7-(1H-pyrazol-4-yl)quinoxaline-2(1H)-one] | 9.5 | 114 |  | 
23 | Cn1c(=O)c(Nc2ccc(N3CCOCC3)cn2)cc2c(F)c(-c3cc[nH]n3)c(F)cc21 [Example 8, 5,7-Difluoro-1-methyl-3-((5-morpholinopyridin-2-yl)amino)-6-(1H-pyrazol-3-yl)quinoline-2(1H)-one] | 54.6 | 188 |  | 
24 | CN1CCCN(c2ccc(Nc3nc4ccc(-c5cn[nH]c5)cc4n(C)c3=O)cc2)CC1 [Example 37, 1-Methyl-3-((4-(4-methyl-1,4-diazepan-1-yl)phenyl)amino)-7-(1H-pyrazol-4-yl)quinoxaline-2(1H)-one] | 10.1 | 261 |  | 

From patent publication US11091460B2, “Syk inhibitor and use method therefor” (CHIA TAI TIANQING PHARMACEUTICAL GROUP CO., LTD., priority 2017, dated 2021)
